Measured values: patent publication US20230203059A1, “MACROCYCLIC JAK INHIBITOR AND USES THEREOF” (Biopolar Hongye (Guangdong) Pharmaceutical Co. Ltd., priority 2020, published 2023)

Legend:
Type in all cases: biochemical
JAK1 = JAK1 (Homo sapiens, UniProt P23458); test: JAK kinase activity, homogeneous time-resolved fluorescence (JAK1 reaction system); settings: ATP 2 μM, JAK1 protein 0.2 ng/μL; read-out: JAK 1 activity
Summary of the method: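 HTRF assay: JAK1 (0.2 ng/μL) with 2 μM ATP and substrate in 50 mM Hepes pH 7.0, 5 mM MgCl2, 1 mM DTT, 1 h. Phospho-substrate antibody/XL-615 detection with EDTA; 665/615 nm ratio, excitation 320 nm. IC50 from Hill-type fit against no-enzyme and no-compound controls.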

JAK2 = JAK2 (Homo sapiens, UniProt O60674); test: JAK kinase activity, homogeneous time-resolved fluorescence (JAK2 reaction system); settings: ATP 2 μM, JAK2 protein 0.01 ng/μL
Summary of the method: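 IC50 derived by Hill-equation fit of the 665/615 nm time-resolved fluorescence ratio after EDTA-containing detection mix with anti-phosphosubstrate antibody. Preceding 1 h reaction contained 2 μM ATP, 0.01 ng/μL JAK2, substrate, 50 mM Hepes pH 7.0, 5 mM MgCl2, 1 mM DTT.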

JAK3 = biological target: T1, JAK3 (Homo sapiens, UniProt P52333); test: JAK kinase activity, homogeneous time-resolved fluorescence (JAK3 reaction system); settings: ATP 2 μM, JAK3 protein 0.04 ng/μL; read-out: JAK 3 activity
T1 sequence (P52333 1-1124): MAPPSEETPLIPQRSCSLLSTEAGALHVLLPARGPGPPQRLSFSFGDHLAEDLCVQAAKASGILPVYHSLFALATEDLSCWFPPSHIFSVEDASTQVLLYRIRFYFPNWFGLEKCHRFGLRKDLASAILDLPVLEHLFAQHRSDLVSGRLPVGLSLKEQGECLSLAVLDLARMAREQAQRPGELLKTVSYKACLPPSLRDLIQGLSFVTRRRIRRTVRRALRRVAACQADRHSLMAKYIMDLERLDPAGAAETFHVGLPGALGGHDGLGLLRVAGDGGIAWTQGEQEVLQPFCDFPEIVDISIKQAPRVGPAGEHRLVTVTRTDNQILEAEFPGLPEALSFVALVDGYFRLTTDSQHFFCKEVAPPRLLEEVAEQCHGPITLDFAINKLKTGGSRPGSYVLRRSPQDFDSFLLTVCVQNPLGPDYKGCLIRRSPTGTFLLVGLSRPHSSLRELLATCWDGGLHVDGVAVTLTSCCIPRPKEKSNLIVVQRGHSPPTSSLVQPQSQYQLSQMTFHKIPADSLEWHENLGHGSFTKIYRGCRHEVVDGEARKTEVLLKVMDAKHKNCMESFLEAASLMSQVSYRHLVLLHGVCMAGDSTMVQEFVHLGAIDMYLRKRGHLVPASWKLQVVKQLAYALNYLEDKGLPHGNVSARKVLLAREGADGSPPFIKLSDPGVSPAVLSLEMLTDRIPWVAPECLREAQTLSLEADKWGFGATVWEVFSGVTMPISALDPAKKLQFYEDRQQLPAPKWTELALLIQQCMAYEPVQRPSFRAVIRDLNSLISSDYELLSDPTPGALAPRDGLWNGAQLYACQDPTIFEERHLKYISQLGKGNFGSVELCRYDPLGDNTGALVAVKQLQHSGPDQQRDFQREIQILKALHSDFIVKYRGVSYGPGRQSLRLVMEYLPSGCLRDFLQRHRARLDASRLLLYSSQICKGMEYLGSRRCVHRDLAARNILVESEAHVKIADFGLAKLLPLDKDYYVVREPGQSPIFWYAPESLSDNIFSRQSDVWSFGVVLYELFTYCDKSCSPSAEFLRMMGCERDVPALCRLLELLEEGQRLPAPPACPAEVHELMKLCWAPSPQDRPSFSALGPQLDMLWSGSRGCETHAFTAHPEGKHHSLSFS

TYK2 = TYK2 (Homo sapiens, UniProt P29597); test: JAK kinase activity, homogeneous time-resolved fluorescence (TYK2 reaction system); settings: ATP 2 μM, TYK2 protein 0.2 ng/μL; read-out: TYK 2 activity
Summary of the method: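 Activity read as the 665 nm/615 nm ratio after adding EDTA-containing detection mix with anti-phospho-substrate antibody and XL-615. Beforehand, 0.2 ng/μL TYK2, 2 μM ATP, substrate and compound reacted 1 h in pH 7.0 Hepes buffer with MgCl2 and DTT. IC50 fitted with Hill-slope equation.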

Sequence of JAK2 (O60674 whole entry): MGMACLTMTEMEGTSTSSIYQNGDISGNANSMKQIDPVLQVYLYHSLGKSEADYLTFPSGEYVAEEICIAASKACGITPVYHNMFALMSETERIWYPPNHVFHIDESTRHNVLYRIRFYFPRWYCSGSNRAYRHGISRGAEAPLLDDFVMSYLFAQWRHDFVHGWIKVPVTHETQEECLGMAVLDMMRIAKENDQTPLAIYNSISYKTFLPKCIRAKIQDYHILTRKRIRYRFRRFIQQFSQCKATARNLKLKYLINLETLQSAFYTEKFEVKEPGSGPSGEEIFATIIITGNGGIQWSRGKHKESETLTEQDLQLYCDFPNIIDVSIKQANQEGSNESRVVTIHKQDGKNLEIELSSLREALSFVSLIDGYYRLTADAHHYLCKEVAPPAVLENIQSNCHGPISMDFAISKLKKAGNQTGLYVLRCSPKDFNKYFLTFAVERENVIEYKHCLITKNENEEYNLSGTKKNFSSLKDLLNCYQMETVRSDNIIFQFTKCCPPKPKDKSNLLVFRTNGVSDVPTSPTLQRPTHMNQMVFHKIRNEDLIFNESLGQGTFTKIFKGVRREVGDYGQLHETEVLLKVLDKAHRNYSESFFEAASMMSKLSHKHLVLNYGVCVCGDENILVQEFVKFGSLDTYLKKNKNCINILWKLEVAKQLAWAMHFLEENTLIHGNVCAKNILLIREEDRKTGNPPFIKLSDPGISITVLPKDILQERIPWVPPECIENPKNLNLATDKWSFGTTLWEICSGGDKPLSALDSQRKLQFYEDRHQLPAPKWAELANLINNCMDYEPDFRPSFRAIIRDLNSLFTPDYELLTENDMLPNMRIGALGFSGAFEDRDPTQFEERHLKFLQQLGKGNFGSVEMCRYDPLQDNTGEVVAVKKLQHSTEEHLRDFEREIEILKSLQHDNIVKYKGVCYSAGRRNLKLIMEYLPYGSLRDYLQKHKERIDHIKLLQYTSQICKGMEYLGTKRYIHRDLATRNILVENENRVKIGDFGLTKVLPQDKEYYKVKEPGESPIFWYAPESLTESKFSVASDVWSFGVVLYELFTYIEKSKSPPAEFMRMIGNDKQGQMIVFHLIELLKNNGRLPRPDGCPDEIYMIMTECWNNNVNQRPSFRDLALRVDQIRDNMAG
Sequence of TYK2 (P29597 whole entry): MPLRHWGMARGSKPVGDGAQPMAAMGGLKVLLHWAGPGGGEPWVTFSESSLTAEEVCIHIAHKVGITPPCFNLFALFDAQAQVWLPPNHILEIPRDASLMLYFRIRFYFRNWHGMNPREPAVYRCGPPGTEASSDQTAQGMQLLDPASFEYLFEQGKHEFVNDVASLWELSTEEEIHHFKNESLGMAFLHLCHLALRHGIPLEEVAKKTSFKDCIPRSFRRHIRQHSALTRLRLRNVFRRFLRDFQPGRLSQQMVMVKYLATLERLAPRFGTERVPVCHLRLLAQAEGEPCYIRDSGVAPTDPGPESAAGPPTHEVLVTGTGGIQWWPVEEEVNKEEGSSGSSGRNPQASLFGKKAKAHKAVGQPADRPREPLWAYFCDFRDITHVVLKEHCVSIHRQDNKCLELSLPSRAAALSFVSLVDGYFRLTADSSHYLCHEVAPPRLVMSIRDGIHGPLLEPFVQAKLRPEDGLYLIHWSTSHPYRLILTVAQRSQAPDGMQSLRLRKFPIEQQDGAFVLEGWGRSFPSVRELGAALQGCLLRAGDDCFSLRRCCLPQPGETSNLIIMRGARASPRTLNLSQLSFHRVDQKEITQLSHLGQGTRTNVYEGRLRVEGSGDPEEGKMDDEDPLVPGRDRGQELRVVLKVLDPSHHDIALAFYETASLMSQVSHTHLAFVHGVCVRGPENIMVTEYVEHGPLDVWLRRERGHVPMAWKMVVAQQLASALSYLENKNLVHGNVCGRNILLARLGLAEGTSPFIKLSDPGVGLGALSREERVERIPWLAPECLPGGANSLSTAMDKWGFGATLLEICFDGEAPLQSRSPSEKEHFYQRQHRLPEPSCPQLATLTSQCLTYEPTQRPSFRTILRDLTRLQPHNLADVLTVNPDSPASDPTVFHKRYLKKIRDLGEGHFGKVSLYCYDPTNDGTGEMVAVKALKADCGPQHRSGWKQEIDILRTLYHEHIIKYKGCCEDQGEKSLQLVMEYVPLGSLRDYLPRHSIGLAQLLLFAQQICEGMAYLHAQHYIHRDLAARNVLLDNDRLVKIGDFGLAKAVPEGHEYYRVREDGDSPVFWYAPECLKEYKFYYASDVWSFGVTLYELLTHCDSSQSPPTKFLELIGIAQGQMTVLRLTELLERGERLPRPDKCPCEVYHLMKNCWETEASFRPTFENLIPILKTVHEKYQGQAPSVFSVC
Sequence of JAK1 (P23458 whole entry): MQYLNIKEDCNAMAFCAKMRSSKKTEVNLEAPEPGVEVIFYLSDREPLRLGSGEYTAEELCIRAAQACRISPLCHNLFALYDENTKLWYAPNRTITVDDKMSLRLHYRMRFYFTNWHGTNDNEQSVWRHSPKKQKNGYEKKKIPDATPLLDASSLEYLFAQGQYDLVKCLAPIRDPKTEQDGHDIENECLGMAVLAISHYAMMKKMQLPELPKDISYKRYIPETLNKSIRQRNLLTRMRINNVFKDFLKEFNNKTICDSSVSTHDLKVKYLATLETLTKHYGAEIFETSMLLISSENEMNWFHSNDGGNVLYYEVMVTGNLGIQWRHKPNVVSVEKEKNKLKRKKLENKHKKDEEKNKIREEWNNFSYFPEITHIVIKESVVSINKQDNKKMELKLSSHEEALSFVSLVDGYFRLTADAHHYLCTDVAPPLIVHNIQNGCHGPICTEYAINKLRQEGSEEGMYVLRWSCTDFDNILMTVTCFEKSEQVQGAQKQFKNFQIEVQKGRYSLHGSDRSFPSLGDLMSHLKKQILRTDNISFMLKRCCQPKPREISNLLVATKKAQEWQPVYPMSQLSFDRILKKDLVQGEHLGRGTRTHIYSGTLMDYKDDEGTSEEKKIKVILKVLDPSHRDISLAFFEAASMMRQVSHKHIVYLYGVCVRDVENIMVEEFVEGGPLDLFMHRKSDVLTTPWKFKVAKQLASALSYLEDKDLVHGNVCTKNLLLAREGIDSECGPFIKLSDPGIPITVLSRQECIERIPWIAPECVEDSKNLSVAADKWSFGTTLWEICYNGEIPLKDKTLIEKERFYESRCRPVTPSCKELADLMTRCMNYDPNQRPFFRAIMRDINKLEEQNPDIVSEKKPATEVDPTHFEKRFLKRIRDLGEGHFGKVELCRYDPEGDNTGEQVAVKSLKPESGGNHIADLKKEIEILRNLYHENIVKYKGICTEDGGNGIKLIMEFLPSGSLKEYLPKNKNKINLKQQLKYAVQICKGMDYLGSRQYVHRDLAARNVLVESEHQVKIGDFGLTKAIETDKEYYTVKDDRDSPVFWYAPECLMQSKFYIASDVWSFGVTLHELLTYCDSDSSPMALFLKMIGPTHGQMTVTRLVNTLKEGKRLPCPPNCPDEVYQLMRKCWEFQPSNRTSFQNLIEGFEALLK

Compound	IC50 (JAK1)	IC50 (JAK2)	IC50 (JAK3)	IC50 (TYK2)
Cc1cc2ccc1NC(=O)c1ccc(c(N)c1)-c1ccnc(n1)Nc1ccc(OC3CC3)c(c1)CO2 [Example 207, 1^2-amino-4^4-cyclopropoxy-7^3-meth-yl-6-oxa-3,8-diaza-2(4,2)-pyrimidina-1,7(1,4),4(1,3)-tribenzenacyclo-nonaphane-9-one]	101 to 1000 nM	101 to 1000 nM	11 to 100 nM	1000 to 10000 nM
O=C1NCCCCOCc2cc(cc(Cl)c2N2CCOCC2)Nc2nccc(n2)-c2ccc1cc2 [Example 8, 4^5-chloro-4^4-morpholin-6-oxa-3,11-diaza-2(4,2)-pyrimidina-1(1,4),4(1,3)-dibenzenacyclododecaphan-12-one]	101 to 1000 nM	11 to 100 nM	11 to 100 nM	101 to 1000 nM
CC1CCOCc2cc(ccc2OC2CCCC2)Nc2nccc(n2)-c2ccc(cc2N)C(=O)NC1 (centres unmarked) [Example 184, 1^2-amino-4^4-(cyclopentoxy)-9-meth-yl-6-oxa-3,11-diaza-2(4,2)-pyrimi-dina-1(1,4),4(1,3)-dibenzenacyclo-dodecaphan-12-one]	1000 to 10000 nM	101 to 1000 nM	< 10 nM	1000 to 10000 nM
CC1CCNC(=O)c2ccc(c(N)c2)-c2ccnc(n2)Nc2ccc(OCC3COC3)c(c2)COC1 (centres unmarked) [Example 175]	1000 to 10000 nM	101 to 1000 nM	11 to 100 nM	1000 to 10000 nM
O=C1NCCCCOCc2cc(ccc2O)Nc2nccc(n2)-c2ccc1cc2[N+](=O)[O-] [Example 81, 4^4-hydroxy-1-nitro-6-oxa-3,11-diaza-2(4,2)-pyrimidina-1(1,4),4(1,3)-di-benzenacyclododecaphan-12-one]	1000 to 10000 nM	1000 to 10000 nM	101 to 1000 nM	> 10000 nM
Nc1cc2ccc1-c1ccnc(n1)Nc1ccc(F)c(c1)COc1ccc(cc1)NC2=O [Example 91, 1^2-amino-4^4-fluoro-6-oxa-3,8-diaza-2(4,2)-pyrimidina-1,7(1,4),4(1,3)-tri-benzenacyclononaphane-9-one]	> 10000 nM	> 10000 nM	101 to 1000 nM	> 10000 nM
COc1ccc2cc1COCCCCNC(=O)c1ccc(c(C)c1)-c1nc(ncc1C)N2 [Example 33, 1^2,2^5-dimethyl-4^4-methoxy-6-oxa-3,11-diaza-2(4,2)-pyrimidina-1(1,4),4(1,3)-dibenzenacyclododecaphan-12-one]	1000 to 10000 nM	1000 to 10000 nM	1000 to 10000 nM	> 10000 nM
COc1cc(F)ccc1COc1ccc2cc1COCCCCNC(=O)c1ccc(c(N)c1)-c1ccnc(n1)N2 [Example 173, 1^2-amino-4^4-((4-fluoro-2-methoxy-benzyl)oxy)-6-oxa-3,11-diaza-2(4,2)-pyrimidina-1(1,4),4(1,3)-di-benzenacyclododecaphan-12-one]	1000 to 10000 nM	101 to 1000 nM	11 to 100 nM	1000 to 10000 nM
CC1CCOCc2cc(ccc2OCC2CCOC2)Nc2nccc(n2)-c2ccc(cc2N)C(=O)NC1 (centres unmarked) [Example 167, 1-amino-9-methyl-4^4-((tetahydro-furan-3-yl)methoxy)-6-oxa-3,11-diaza-2(4,2)-pyrimidina-1(1,4),4(1,3)-dibenzenacyclododecaphan-12-one]	101 to 1000 nM	101 to 1000 nM	< 10 nM	101 to 1000 nM
Cc1cc2ccc1-c1nc(ncc1C)Nc1ccc(F)c(c1)COCCCCNC2=O [Example 45, 1^2,2^5-dimethyl-4^4-fluoro-6-oxa-3,11-diaza-2(4,2)-pyrimidina-1(1,4),4(1,3)-dibenzenacyclododecaphan-12-one]	1000 to 10000 nM	1000 to 10000 nM	1000 to 10000 nM	> 10000 nM
CC1CCNC(=O)c2ccc(c([N+](=O)[O-])c2)-c2ccnc(n2)Nc2ccc(OCC3CCOC3)c(c2)COC1 (centres unmarked) [Example 135, 8-methyl-1^2-nitro-4^4-((tetrahydro-furan-3-yl)methoxy)-6-oxa-3,11-diaza-2(4,2)-pyrimidina-1(1,4),4(1,3)-dibenzenacyclododecaphan-12-one]	1000 to 10000 nM	1000 to 10000 nM	101 to 1000 nM	> 10000 nM
O=C1NCCCCOCc2cc(ccc2N2CCOCC2)Nc2ncc(Cl)c(n2)-c2ccc1cc2F [Example 14, 2^5-chloro-1^2-fluoro-4^4-morpholin-6-oxa-3,11-diaza-2(4,2)-pyrimidina-1-(1,4),4(1,3)-dibenzenacyclododeca-phan-12-one]	101 to 1000 nM	11 to 100 nM	11 to 100 nM	101 to 1000 nM
O=C1NCCCCOCc2cc(ccc2OCC2CCC2)Nc2nccc(n2)-c2ccc1cc2[N+](=O)[O-] [Example 99, 4^4-(cyclobutylmethoxy)-1^2-nitro-6-oxa-3,11-diaza-2(4,2)-pyrimidina-1(1,4),4(1,3)-dibenzenacyclodode-caphan-12-one]	> 10000 nM	1000 to 10000 nM	101 to 1000 nM	> 10000 nM
C[C@H]1CCOCc2cc(ccc2OC2CCCC2)Nc2nccc(n2)-c2ccc(cc2N)C(=O)NC1 [Example 190]	1000 to 10000 nM	101 to 1000 nM	11 to 100 nM	1000 to 10000 nM
Nc1cc2ccc1-c1ccnc(n1)Nc1ccc(N3CCOCC3)c(c1)COCCCCCNC2=O [Example 50, 1^2-amino-4^4-morpholin-6-oxa-3,12-diaza-2(4,2)-pyrimidina-1(1,4),4(1,3)-dibenzenacyclotridecaphan-13-one]	101 to 1000 nM	11 to 100 nM	< 10 nM	11 to 100 nM
CN(C)c1cc2ccc1-c1ccnc(n1)Nc1ccc(OC3CC3)c(c1)COCCCCNC2=O [Example 83, 4^4-cyclopropxy-1^2-dimethylamino-6-oxa-3,11-diaza-2(4,2)-pyrimidina-1(1,4),4(1,3)-dibenzenacyclododeca-phan-12-one]	1000 to 10000 nM	1000 to 10000 nM	> 10000 nM	> 10000 nM
Nc1cc2ccc1-c1ccnc(n1)Nc1ccc(OC3COC3)c(c1)COCCCCNC2=O [Example 75, 1^2-amino-4^4-(oxetan-3-oxy)-6-oxa-3,11-diaza-2(4,2)-pyrimidina-1(1,4),4(1,3)-dibenzenacyclododecaphan-12-one]	1000 to 10000 nM	101 to 1000 nM	11 to 100 nM	1000 to 10000 nM
Nc1cc2ccc1-c1ccnc(n1)Nc1ccc(Oc3cccnc3)c(c1)COCCCCNC2=O [Example 110, 1^2-amino-4^4-(pyridin-3-oxy)-6-oxa-3,11-diaza-2(4,2)-pyrimidina-1(1,4),4(1,3)-dibenzenacyclodo-decaphan-12-one]	1000 to 10000 nM	101 to 1000 nM	< 10 nM	1000 to 10000 nM
Nc1cc2ccc1-c1ccnc(n1)Nc1ccc(OCc3cccc4c3OCC4)c(c1)COCCCCNC2=O [Example 148, 1^2-amino-4^4-((2,3-dihydrobenzofu-ran-7-yl)methoxy)-6-oxa-3,11-dia-za-2(4,2)-pyrimidina-1(1,4),4(1,3)-dibenzenacyclododecaphan-12-one]	1000 to 10000 nM	101 to 1000 nM	< 10 nM	> 10000 nM
COc1cc(F)cc(F)c1COc1ccc2cc1COCCCCNC(=O)c1ccc(c(N)c1)-c1ccnc(n1)N2 [Example 183, 1^2-amino-4^4-((2,4-difluoro-6-meth-oxybenzyl)oxy)-6-oxa-3,11-diaza-2(4,2)-pyrimidina-1(1,4),4(1,3)-di-benzenacyclododecaphan-12-one]	1000 to 10000 nM	101 to 1000 nM	< 10 nM	1000 to 10000 nM
